Earlier results in US20060083700A1, “Use of a novel phytonutrient rich bioactive concentrate (Ri-ActiveTM) for the prevention and treatment of cardiovascular disease, diabetes and other health disorders” (NaturRi LLC, priority 2004, published 2006).

Tested on: hypercholesterolemic subjects
Settings: 28 subjects, phases of 35 days

CC[C@H](C)C(=O)O[C@H]1C[C@@H](C)C=C2C=C[C@H](C)[C@H](CC[C@@H]3C[C@@H](O)CC(=O)O3)[C@H]21 [lovastatin]
reduction of LDL-C: 15%
reduction of serum total cholesterol: 13%
